Entries after “also recorded” stand apart in the source; their conditions may differ.
Legend:
26S proteasome [1] = experiment: Proteasome-sensor cells (HEK-293, GFP chimera), fluorescence imaging; assay type: cell-based; conditions: for accumulation of the GFP-based proteasome substrate at the center of the colonies: Compound 1 500 nM 20-40 hours, Velcade 50 or 500 nM 20 hours; for accumulation of GFP-labeled proteasome-targeting chimera protein, periphery of colony relative to center: HEK-293 colony, 500 nM; for proteasome inhibition activity in cell-based assays (overall statement): live proteasome-sensor cells
Source text: Specifically, the proteasome-sensor cells are HEK-293 cells stably transfected with a vector (proteasome-sensor vector) that encodes naturally-occurring reef coral Zoanthus sp. green fluorescent protein (GFP) fused to a specific degradation motif that targets the fusion protein for removal by the 26S proteasome. The background fluorescence observed in normal cells with active proteasomes is low. When proteasomes are inhibited, the fluorescent protein quickly accumulates. […] Millennium Pharmaceuticals, Inc., Cambridge, Mass.). […] Velcade (Millennium Pharmaceuticals Inc.) was used as a positive control in this assay (at 5 nM, 50 nM, 500 nM or 5 μM). Velcade stock solution was prepared according to the manufacturer's instructions. GFP fluorescence of the cells was imaged at various time points using a standard filter for FITC with the Nikon TE300 microscope/digital imaging system described herein.

26S proteasome [2] = experiment: Proteasome-sensor cells, flow cytometry; assay type: cell-based
Procedure: The first measurement was determined by the increase of proteasome-sensor positive cells treated with Compound 1 or Velcade, as compared to DMSO, by using a cell line expressing the proteasome-sensor protein and flow cytometry analysis.
To measure the proteasome-inhibition effect of Compound 1, GFP fluorescence in the proteasome-sensor cells treated with Compound 1 and Velcade was measured using flow cytometry. […] Cells were harvested by treating the cells with 1×PBS for 5 minutes and pipetting the cells up and done 10 times. The cells were passed through a 100 μm-diameter filter before analyzing by FACS. A standard FITC filter was used for the FACS analysis. Quantitation of the proteasome-inhibitory effect of Compound 1 was determined by an increase in the percentage of GFP-positive cells, as compared to treatment with DMSO alone.
To further characterize the proteasome-inhibitory effect of Compound 1 in live cells, proteasome-sensor cells were treated with Compound 1 and the accumulation of the GFP-based proteasome substrate was measured by flow cytometry.

[3] = biological target: T1, bovine red blood cell 20S proteasome (Bos taurus, UniProt Q32KL2); experiment: 20S Proteasome Assay (in vitro, Suc-Leu-Val-Tyr-AMC); assay type: biochemical; conditions: isolated 20S proteasome; for proteasome activity in vitro: 5 nM
T1 construct: bovine red blood cell 20S proteasome; purchased Calbiochem; host or cells: purified from bovine red blood cells
Procedure: 190 μl of reaction buffer (500 mM HEPES, 10 nM EDTA, pH 7.6), containing 0.03% SDS was pre-incubated for 5 minutes at 37° C. in the presence of 0.2 μg of bovine red blood cell 20S proteasome (Calbiochem, San Diego, Calif.) for temperature equilibration. Subsequently, inhibitors or Compound 1 were added to the reaction mixture at a final DMSO concentration of 0.5%. The reaction was initiated by adding 10 μl of the peptide-AMC substrate (Calbiochem, San Diego, Calif.) to each well. The emitted fluorescence was then measured every third minute at 37° C. for 90 minutes by a fluorescence plate reader (FlexStation II, Molecular Devices, Sunnyvale, Calif.) at 460 nm (λex360 nm) wavelength.
The buffers and reagents for the assay were purchased from Calbiochem (20S Proteasome Assay Kit; Calbiochem, San Diego, Calif.). The principle of the assay is that the release of free AMC (7-Amino-4-methylcoumarin) following degradation of the substrate results in a fluorescent signal that is a measure of proteasome activity. The quantitative analysis of 20S proteasome activity was assayed as described.

CHO cells = experiment: Cell morphology, simultaneous time-lapse imaging of CHO cells; assay type: cell-based, Chinese hamster; conditions: for cell death: cells, after a certain period of treatment
Procedure: CV-1 cells and CHO cells were previously cultured in 2-well chambered cover-slips for 48 hours and incubated in 15 mM HEPES buffer-containing Ham's F-12/DMEM medium with different compounds. The cells were imaged using phase contrast settings with the Nikon TE300 microscope/digital imaging system. The cells were imaged ‘simultaneously’ under control of MetaVue software by capturing frames for cells from different conditions at the same time period using a motorized automated XYZ stage.
To track the effect of Compound 1 on live cells, non-transfected CV-1 cells with were treated with 500 nM Compound 1 and phase contrast time-lapse images were taken every 10 seconds. […] A very low concentration of Taxol (10 nM) was used.

CN(NC(=O)CC(=O)NN(C)C(=S)c1ccccc1)C(=S)c1ccccc1 [Compound 1] was tested, and the “accumulation of the GFP-based proteasome substrate at the center of the colonies” value (26S proteasome [1]; FIG. 14) was “did not cause significant accumulation”, the “accumulation of the GFP-based proteasome substrate at the periphery of the colonies” value (26S proteasome [1]; FIG. 14, Compound 1 500 nM, 20-40 hours) was “significant accumulation of the GFP-based proteasome substrate” and the “accumulation of proteasome-sensor protein in cells” value (shortened to “accumulation … in cells”) (26S proteasome [1]; HEK-293, 1 nM, 20 hours) was “accumulation of proteasome-sensor protein in cells”. The “accumulation … in cells” value (26S proteasome [1]; HEK-293, 5 nM, 20 hours) was “accumulation of proteasome-sensor protein in cells”, the “accumulation … in cells” value (26S proteasome [1]; HEK-293, 10 nM, 20 hours) was “accumulation of proteasome-sensor protein in cells” and the “accumulation … in cells” value (26S proteasome [1]; HEK-293, 50 nM, 20 hours) was “induced an increase of the GFP-based proteasome substrate in the cytoplasm in some scattered cells; also recorded: accumulation of proteasome-sensor protein in cells”. The “accumulation … in cells” value (26S proteasome [1]; HEK-293, 100 nM, 20 hours) was “significantly increased the GFP signal in the cytosol; also recorded: accumulation of proteasome-sensor protein in cells”, the “accumulation … in cells” value (26S proteasome [1]; HEK-293, 0.5 μM, 24 hours) was “accumulation of proteasome-sensor protein in cells” and the “accumulation … in cells” value (26S proteasome [1]; HEK-293, 500 nM, 20 hours) was “accumulation of proteasome-sensor protein in cells”. For the same compound, the “accumulation of GFP-labeled proteasome-targeting chimera protein, periphery of colony relative to center” value (26S proteasome [1]; 20 hours) was “stronger accumulation at the periphery of the colony”, the “accumulation of GFP-labeled proteasome-targeting chimera protein, periphery of colony relative to center” value (26S proteasome [1]; 40 hours) was “stronger accumulation at the periphery of the colony” and the “distribution of GFP-labeled proteasome-targeting chimera protein” value (26S proteasome [1]; HEK-293 proteasome-sensor cell, 5 μM, 24 hours) was “general, broad distribution of GFP-labeled proteasome-targeting chimera protein in both the cytosol and nucleus”. The “proteasome inhibition activity in cell-based assays (overall statement)” value (26S proteasome [1]) was “weak-to-moderate proteasome inhibitory effect in live cells; also recorded: moderate proteasome inhibition activity; also recorded: weak/moderate proteasome inhibitor”, the “proteasome inhibition activity in cell-based assays (overall statement)” value (26S proteasome [1]; listed as GMP-grade Compound 1) was “detectable level of proteasome inhibition activity” and the “increase of the fluorescent positive cells (proteasome-sensor positive) compared to DMSO” value (26S proteasome [2]; 500 nM) was 14.53%. The “increase of fluorescence (non-gated flow cytometry)” value (26S proteasome [2]; 500 nM, 20 hours) was “significant increase of fluorescence”, the “increase in fluorescent cell population, lower than that of cells treated with Velcade” value (26S proteasome [2]; Compound 1 500 nM versus Velcade 100 nM, 20 hours) was “about 4 fold” and the “proteasome inhibitory activity in vitro (overall statement)” value [3] was “very weak proteasome inhibitory activity in the in vitro assay”. For the same compound, the “proteasome activity in vitro” value [3] was “no effect on proteasome activity”, the “proteasome inhibitory activity in vitro” value ([3]; 50 μM) was “did not exhibit significant proteasome inhibitory activity; also recorded: neither Compound 1 nor its salt form, Compound 2, displayed significant proteasome inhibitory activity” and the “proteasome inhibitory activity in vitro (overall statement)” value ([3]; listed as GMP-grade Compound 1) was “failed to inhibit isolated proteasomes”. For the same compound, the “time of induced cell shrinkage” value (CHO cells; CHO cells, 500 nM) was 70 min and the cell death (CHO cells) was “cause cell death after a certain period of treatment”.
With CC(C)C[C@H](NC(=O)[C@H](Cc1ccccc1)NC(=O)c1cnccn1)B(O)O [Velcade] the “accumulation of the GFP-based proteasome substrate at the center of the colonies” value (26S proteasome [1]; FIG. 14) was “greater accumulation of the GFP-based proteasome substrate in cells at the colony center than did Compound 1”, the “accumulation … in cells” value (26S proteasome [1]; HEK-293, 1 nM, 20 hours) was “accumulation of proteasome-sensor protein in cells” and the “accumulation … in cells” value (26S proteasome [1]; HEK-293, 5 nM, 20 hours) was “significantly induced an increase of GFP signal; also recorded: accumulation of proteasome-sensor protein in cells”. The “accumulation … in cells” value (26S proteasome [1]; HEK-293, 10 nM, 20 hours) was “accumulation of proteasome-sensor protein in cells”, the “accumulation … in cells” value (26S proteasome [1]; HEK-293, 50 nM, 20 hours) was “accumulation of proteasome-sensor protein in cells” and the “accumulation … in cells” value (26S proteasome [1]; HEK-293, 100 nM, 20 hours) was “accumulation of proteasome-sensor protein in cells”. For the same compound, the “accumulation … in cells” value (26S proteasome [1]; HEK-293, 100 nM, 24 hours) was “accumulation of proteasome-sensor protein in cells”, the “accumulation … in cells” value (26S proteasome [1]; HEK-293, 500 nM, 20 hours) was “accumulation of proteasome-sensor protein in cells” and the “increase of the fluorescent positive cells (proteasome-sensor positive) compared to DMSO” value (26S proteasome [2]; 100 nM) was 58.26%. The “increase of fluorescence (non-gated flow cytometry)” value (26S proteasome [2]; 100 nM, 20 hours) was “significant increase of fluorescence”, the “proteasome activity in vitro” value [3] was “almost complete inhibition” and the “proteasome inhibition in vitro” value ([3]; 0.5 μM) was “almost completely inhibited the proteasome”. The “effect on cell morphology” value (CHO cells; CHO cells, 100 nM) was “did not dramatically affect cell morphology until cell death”, the “time of cell death” value (CHO cells; CHO cells, 100 nM) was 210 min and the cell death (CHO cells) was “cause cell death after a certain period of treatment”.
